According to the supplement of paper PMC13380429:

Legend:
Details in all cases: 72 h
Vero E6 [1] = experiment: relative viability EC50 (midpoint between 100% and the lowest measured viability); higher = less toxic
Caco-2 [2] = experiment: as above
U2OS [3] = experiment: as above
HepG2 [4] = experiment: as above
Calu-3 [5] = experiment: as above
Vero E6 [6] = experiment: drug sensitivity score (DSS) for viability; higher = more toxic; extreme values may be limits of the assay
Caco-2 [7] = experiment: as above
U2OS [8] = experiment: as above
HepG2 [9] = experiment: as above
Calu-3 [10] = experiment: as above
Vero E6 [11] = experiment: cell viability relative to DMSO; higher = less toxic
Caco-2 [12] = experiment: as above
U2OS [13] = experiment: as above
HepG2 [14] = experiment: as above
Calu-3 [15] = experiment: as above

Row | SMILES | relative viability EC50 (Vero E6 [1]) | relative viability EC50 (Caco-2 [2]) | relative viability EC50 (U2OS [3]) | relative viability EC50 (HepG2 [4]) | relative viability EC50 (Calu-3 [5]) | drug sensitivity score (Vero E6 [6]) | drug sensitivity score (Caco-2 [7]) | drug sensitivity score (U2OS [8]) | drug sensitivity score (HepG2 [9]) | drug sensitivity score (Calu-3 [10]) | cell viability (Vero E6 [11]; 1 nM) | cell viability (Vero E6 [11]; 10 nM) | cell viability (Vero E6 [11]; 100 nM) | cell viability (Vero E6 [11]; 1000 nM) | cell viability (Vero E6 [11]; 10000 nM) | cell viability (Caco-2 [12]; 1 nM) | cell viability (Caco-2 [12]; 10 nM) | cell viability (Caco-2 [12]; 100 nM) | cell viability (Caco-2 [12]; 1000 nM) | cell viability (Caco-2 [12]; 10000 nM) | cell viability (U2OS [13]; 1 nM) | cell viability (U2OS [13]; 10 nM) | cell viability (U2OS [13]; 100 nM) | cell viability (U2OS [13]; 1000 nM) | cell viability (U2OS [13]; 10000 nM) | cell viability (HepG2 [14]; 1 nM) | cell viability (HepG2 [14]; 10 nM) | cell viability (HepG2 [14]; 100 nM) | cell viability (HepG2 [14]; 1000 nM) | cell viability (HepG2 [14]; 10000 nM) | cell viability (Calu-3 [15]; 1 nM) | cell viability (Calu-3 [15]; 10 nM) | cell viability (Calu-3 [15]; 100 nM) | cell viability (Calu-3 [15]; 1000 nM) | cell viability (Calu-3 [15]; 10000 nM)
1 | O=C(c1c2ccccc2cc2ccccc12)N1CCC(N2CCC[C@@H](C(=O)N3CCOCC3)C2)CC1 | > 10 µM | > 10 µM | > 10 µM | > 10 µM | > 10 µM | 0 | 0 | 0 | 1.1 | 0 | 97.9% | 93.4% | 93.8% | 89.7% | 99.8% | 84.6% | 100% | 87.3% | 94.3% | 87.2% | 92.7% | 98.9% | 102% | 103% | 101% | 93.7% | 93.2% | 96.9% | 85.3% | 82.3% | 100% | 99.8% | 105% | 113% | 117%
2 | O=C1NC(=O)/C(=C/c2ccc(-c3ccc(F)cc3O)o2)S1 | > 10 µM |  | > 10 µM | > 10 µM | > 10 µM | 0.5 | 0.9 | 0 | 0 | 1 | 102% | 100% | 99.3% | 100% | 81.2% | 94% | 103% | 96.3% | 105% | 72.5% | 103% | 101% | 91% | 104% | 91.2% | 96.2% | 96.2% | 95.9% | 96.6% | 106% | 116% | 109% | 102% | 98.2% | 77%
3 | O=c1cc(-c2cccc3c2Sc2ccccc2S3)oc(N2CCOCC2)c1 | > 10 µM |  | > 10 µM | > 10 µM | > 10 µM | 0.2 | 2.5 | 0 | 0.1 | 0 | 97.5% | 102% | 101% | 106% | 83.3% | 103% | 102% | 98.2% | 93.3% | 67.8% | 99.8% | 99.6% | 102% | 100% | 93.3% | 104% | 102% | 93.5% | 108% | 85.9% | 100% | 98.9% | 98.2% | 104% | 106%
4 | Oc1ccc(-c2nc3cc(O)cc(Br)c3o2)cc1 | > 10 µM | > 10 µM | > 10 µM | > 10 µM | > 10 µM | 0 | 0 | 0 | 0 | 0 | 110% | 95.6% | 110% | 101% | 98.9% | 100% | 112% | 102% | 98.3% | 92.1% | 99.1% | 105% | 96.9% | 109% | 100% | 107% | 102% | 104% | 102% | 95.3% | 110% | 99.1% | 93.8% | 96.9% | 89.1%
5 | O=C(O)CC/C=C\C[C@@H]1CO[C@H](c2ccccc2Cl)O[C@@H]1c1ccccc1O (racemic) | > 10 µM | > 10 µM | > 10 µM | > 10 µM | > 10 µM | 0 | 0 | 0 | 0 | 0 | 93.1% | 96.3% | 92.6% | 102% | 106% | 91.4% | 90.3% | 105% | 96.9% | 92.6% | 96.6% | 95% | 97.4% | 95.5% | 99.2% | 88.5% | 103% | 106% | 108% | 110% | 93.8% | 96.1% | 102% | 99% | 98.9%
6 | CCC(=O)N[C@@H]1Cc2ccccc2[C@H](c2ccccc2)C1 [4-P-PDOT] | > 10 µM | > 10 µM |  | > 10 µM | > 10 µM | 0 | 0 |  | 0 | 0 | 95.9% | 97.4% | 100% | 96.1% | 98.5% | 103% | 95.4% | 100% | 95.1% | 94.4% |  |  |  |  |  | 106% | 111% | 99% | 88.9% | 108% | 105% | 94.6% | 104% | 114% | 102%
7 | O=c1cccc2n1C[C@H]1C[C@@H]2CN(CCN2C[C@@H]3C[C@H](C2)c2cccc(=O)n2C3)C1 [CC4] | > 10 µM | > 10 µM |  | > 10 µM | > 10 µM | 0 | 0 |  | 0 | 0 | 97.4% | 94.6% | 98.8% | 92.8% | 101% | 98.2% | 100% | 91.4% | 93.1% | 98.3% |  |  |  |  |  | 91.3% | 91.9% | 93.9% | 97.4% | 93.4% | 87.1% | 104% | 101% | 119% | 104%
8 | COc1ccc(OC)c(CN(C(C)=O)c2cc(F)ccc2Oc2ccccc2)c1 [DAA-1106] | > 10 µM |  | > 10 µM | > 10 µM | > 10 µM | 0 | 0.9 | 0 | 0 | 0 | 102% | 99% | 103% | 107% | 101% | 93.4% | 112% | 93.1% | 108% | 71.4% | 102% | 107% | 100% | 96.5% | 93.6% | 102% | 105% | 99.2% | 95.7% | 96% | 103% | 102% | 93.7% | 98.5% | 98.1%
9 | CC(=O)[C@]1(N)Cc2c(O)c3c(c(O)c2[C@@H](O[C@H]2C[C@H](O)[C@H](O)CO2)C1)C(=O)c1ccccc1C3=O [amrubicin] | 1.87 µM | 2.04 µM |  | 1.96 µM | > 10 µM | 5.7 | 7.3 | 0.9 | 8.1 | 0 | 96% | 104% | 99.8% | 88.4% | 32.1% | 101% | 105% | 99.6% | 86.9% | 7.4% | 104% | 99% | 102% | 102% | 73.7% | 105% | 110% | 103% | 84.5% | -0.2% | 96% | 117% | 114% | 110% | 86.7%
10 | CO[C@@]1(NC(=O)CSCC#N)C(=O)N2C(C(=O)O)=C(CSc3nnnn3C)CS[C@@H]21 [cefmetazole] | > 10 µM | > 10 µM |  | > 10 µM | > 10 µM | 0 | 0 |  | 0 | 0 | 96.7% | 102% | 102% | 97.9% | 93.2% | 109% | 106% | 108% | 94.7% | 105% |  |  |  |  |  | 106% | 105% | 99.7% | 97.4% | 117% | 101% | 97.6% | 99.7% | 108% | 108%
11 | c1cc(-c2cnn3cc(-c4ccc(OCCN5CCCCC5)cc4)cnc23)ccn1 [dorsomorphin] | 2.9 µM |  | 2.31 µM | 2.52 µM | 3.02 µM | 5.5 | 3 | 6 | 6 | 2.9 | 98.5% | 94.5% | 102% | 96.8% | 9.1% | 96.8% | 96.6% | 89.4% | 95.1% | 56.5% | 102% | 104% | 95.9% | 91.4% | 16.7% | 103% | 103% | 90.5% | 93.1% | 11.6% | 102% | 95.6% | 99.4% | 98.9% | 47.4%
12 | CN(C)CCCN1c2ccccc2CCc2ccccc21 [imipramine] | > 10 µM |  | > 10 µM | > 10 µM | > 10 µM | 0 |  | 0 | 0 | 0 | 100% | 98.7% | 99.4% | 96.6% | 98.5% |  |  |  |  |  | 101% | 103% | 96% | 102% | 90.4% | 95.9% | 102% | 104% | 95.3% | 98.1% | 88.8% | 105% | 96.1% | 108% | 94.3%
13 | CN(C(=O)CN(CCO)CC(=O)N(C)C(C)(C)Cc1ccccc1)C(C)(C)Cc1ccccc1 [oxethazaine] | > 10 µM |  |  | > 10 µM | 2.86 µM | 0 | 1.9 | 1.9 | 0 | 3.4 | 94.8% | 97.7% | 93.7% | 99.8% | 101% | 90.7% | 105% | 102% | 93.1% | 74.6% | 99.7% | 97.5% | 101% | 97.2% | 68.2% | 104% | 101% | 98.9% | 111% | 91.2% | 94.4% | 101% | 100% | 97.6% | 42.2%
14 | Fc1ccc(C(OCCN2CCN(CCCc3ccccc3)CC2)c2ccc(F)cc2)cc1 [vanoxerine] | 2.82 µM |  |  | 3.42 µM | > 10 µM | 3.9 | 3.8 | 1 | 4.6 | 0.6 | 107% | 104% | 104% | 97.1% | 35.3% | 103% | 93.2% | 99.9% | 93.1% | 50.3% | 106% | 102% | 103% | 102% | 72.4% | 102% | 102% | 102% | 104% | 11% | 102% | 94.6% | 102% | 98.9% | 81.2%
15 | CC(C)(C)S(=O)(=O)N[C@H]1CC[C@H](C(=O)Nc2ccc(C(F)(F)F)cn2)CC1 [velneperit] | > 10 µM | > 10 µM |  | > 10 µM | > 10 µM | 0 | 0 |  | 0 | 0 | 94.4% | 104% | 98.4% | 101% | 94.5% | 109% | 98.1% | 103% | 91.7% | 104% |  |  |  |  |  | 100% | 105% | 105% | 98.9% | 98% | 106% | 103% | 117% | 95.5% | 99.1%
